Test results reported in ChEMBL document CHEMBL3132769, “Fragment growing to retain or alter the selectivity of anchored kinase hinge-binding fragments” (Medchemcomm, 2014).

Experiments:
[1] = target: Serine/threonine-protein kinase MARK2 (Homo sapiens) (UniProt Q7KZI7); assay: Inhibition of human full length MARK2 expressed in baculovirus assessed as substrate phosphorylation using fluorescence-labelled peptides as substrate at 70 uM after 90 mins by microfluidic peptide phosphorylation assay
[2] = target: Protein kinase C beta type (Homo sapiens) (UniProt P05771); assay: Inhibition of human full length PKC beta2 expressed in baculovirus assessed as substrate phosphorylation using fluorescence-labelled peptides as substrate at 420 uM after 90 mins by microfluidic peptide phosphorylation assay
[3] = target: Mitogen-activated protein kinase 3 (Homo sapiens) (UniProt P27361); assay: Inhibition of human full length ERK1 expressed in Escherichia coli cell assessed as substrate phosphorylation using fluorescence-labelled peptides as substrate at 420 uM after 90 mins by microfluidic peptide phosphorylation assay
[4] = target: Hepatocyte growth factor receptor (Homo sapiens) (UniProt P08581); assay: Inhibition of human MET cytoplasmic domain expressed in baculovirus assessed as substrate phosphorylation using fluorescence-labelled peptides as substrate at 95 uM after 90 mins by microfluidic peptide phosphorylation assay
[5] = target: Mitogen-activated protein kinase kinase kinase kinase 4 (Homo sapiens) (UniProt O95819); assay: Inhibition of human HGK catalytic domain expressed in baculovirus assessed as substrate phosphorylation using fluorescence-labelled peptides as substrate at 9 uM after 90 mins by microfluidic peptide phosphorylation assay
[6] = target: Dual specificity tyrosine-phosphorylation-regulated kinase 1A (Rattus norvegicus) (UniProt Q63470); assay: Inhibition of rat full length DYRK1a expressed in Escherichia coli cell assessed as substrate phosphorylation using fluorescence-labelled peptides as substrate at 2 uM after 90 mins by microfluidic peptide phosphorylation assay
[7] = target: Protein kinase C alpha type (Homo sapiens) (UniProt P17252); assay: Inhibition of human truncated PKC alpha expressed in baculovirus assessed as substrate phosphorylation using fluorescence-labelled peptides as substrate at 2 uM after 90 mins by microfluidic peptide phosphorylation assay
[8] = target: Cyclin-dependent kinase 2 (Homo sapiens) (UniProt P24941); assay: Inhibition of human full length CDK2 expressed in baculovirus assessed as substrate phosphorylation using fluorescence-labelled peptides as substrate at 2 uM after 90 mins by microfluidic peptide phosphorylation assay
[9] = target: Serine/threonine-protein kinase PAK 2 (Homo sapiens) (UniProt Q13177); conditions: 0.1 uM
Sequence of Serine/threonine-protein kinase PAK 2 (Homo sapiens) (Q13177 whole entry): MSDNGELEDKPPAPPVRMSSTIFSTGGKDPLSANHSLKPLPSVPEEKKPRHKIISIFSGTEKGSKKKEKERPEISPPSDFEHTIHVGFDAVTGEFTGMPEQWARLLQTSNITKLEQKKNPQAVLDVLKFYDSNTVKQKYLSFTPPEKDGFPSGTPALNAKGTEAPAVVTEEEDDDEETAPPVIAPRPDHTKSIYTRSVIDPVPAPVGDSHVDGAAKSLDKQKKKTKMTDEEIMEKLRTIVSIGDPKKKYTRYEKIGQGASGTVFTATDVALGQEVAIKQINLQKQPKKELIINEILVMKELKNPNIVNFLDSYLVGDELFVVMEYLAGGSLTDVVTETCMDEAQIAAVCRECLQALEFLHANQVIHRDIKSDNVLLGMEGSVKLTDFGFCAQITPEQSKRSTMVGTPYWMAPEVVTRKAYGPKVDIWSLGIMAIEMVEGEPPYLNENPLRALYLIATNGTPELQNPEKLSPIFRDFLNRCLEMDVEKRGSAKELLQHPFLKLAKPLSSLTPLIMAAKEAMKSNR
Description: Inhibition of human truncated PAK2 expressed in Escherichia coli cell assessed as substrate phosphorylation using fluorescence-labelled peptides as substrate at 0.1 uM after 90 mins by microfluidic peptide phosphorylation assay

Sequence of Mitogen-activated protein kinase kinase kinase kinase 4 (Homo sapiens) (O95819 2-1239 limits assumed): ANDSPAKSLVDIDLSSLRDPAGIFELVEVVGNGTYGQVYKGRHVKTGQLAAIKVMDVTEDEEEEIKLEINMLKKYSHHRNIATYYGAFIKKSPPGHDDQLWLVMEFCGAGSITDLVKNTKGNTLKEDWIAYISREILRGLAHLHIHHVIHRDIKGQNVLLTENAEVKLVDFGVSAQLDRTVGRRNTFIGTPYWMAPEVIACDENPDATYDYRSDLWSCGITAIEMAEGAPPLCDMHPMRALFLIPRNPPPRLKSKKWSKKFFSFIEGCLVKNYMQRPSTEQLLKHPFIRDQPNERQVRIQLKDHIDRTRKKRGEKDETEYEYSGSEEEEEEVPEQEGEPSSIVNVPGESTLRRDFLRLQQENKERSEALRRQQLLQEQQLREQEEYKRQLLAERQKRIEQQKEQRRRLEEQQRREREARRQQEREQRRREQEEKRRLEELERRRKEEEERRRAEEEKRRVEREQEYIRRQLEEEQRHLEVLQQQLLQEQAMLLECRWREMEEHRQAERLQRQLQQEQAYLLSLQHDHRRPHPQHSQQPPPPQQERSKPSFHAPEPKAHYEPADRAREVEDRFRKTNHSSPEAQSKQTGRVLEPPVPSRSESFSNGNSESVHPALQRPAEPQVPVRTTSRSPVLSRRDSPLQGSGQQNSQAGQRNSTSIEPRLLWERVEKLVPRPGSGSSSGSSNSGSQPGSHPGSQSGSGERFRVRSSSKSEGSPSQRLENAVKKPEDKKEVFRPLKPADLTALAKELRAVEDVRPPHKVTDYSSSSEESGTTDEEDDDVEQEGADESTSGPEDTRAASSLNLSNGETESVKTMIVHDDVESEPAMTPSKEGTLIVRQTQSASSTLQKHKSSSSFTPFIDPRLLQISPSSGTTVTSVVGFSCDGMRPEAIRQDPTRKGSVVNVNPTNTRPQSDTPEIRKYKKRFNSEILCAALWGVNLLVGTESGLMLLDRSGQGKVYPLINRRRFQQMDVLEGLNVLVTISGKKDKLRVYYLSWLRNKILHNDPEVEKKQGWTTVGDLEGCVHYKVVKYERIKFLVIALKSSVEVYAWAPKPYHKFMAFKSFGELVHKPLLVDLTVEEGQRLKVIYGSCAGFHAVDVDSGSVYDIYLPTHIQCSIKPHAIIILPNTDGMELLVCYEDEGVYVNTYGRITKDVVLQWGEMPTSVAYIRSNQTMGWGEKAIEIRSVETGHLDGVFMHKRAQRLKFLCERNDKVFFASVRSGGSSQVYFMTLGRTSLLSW
Sequence of Protein kinase C beta type (Homo sapiens) (P05771 2-671 limits assumed): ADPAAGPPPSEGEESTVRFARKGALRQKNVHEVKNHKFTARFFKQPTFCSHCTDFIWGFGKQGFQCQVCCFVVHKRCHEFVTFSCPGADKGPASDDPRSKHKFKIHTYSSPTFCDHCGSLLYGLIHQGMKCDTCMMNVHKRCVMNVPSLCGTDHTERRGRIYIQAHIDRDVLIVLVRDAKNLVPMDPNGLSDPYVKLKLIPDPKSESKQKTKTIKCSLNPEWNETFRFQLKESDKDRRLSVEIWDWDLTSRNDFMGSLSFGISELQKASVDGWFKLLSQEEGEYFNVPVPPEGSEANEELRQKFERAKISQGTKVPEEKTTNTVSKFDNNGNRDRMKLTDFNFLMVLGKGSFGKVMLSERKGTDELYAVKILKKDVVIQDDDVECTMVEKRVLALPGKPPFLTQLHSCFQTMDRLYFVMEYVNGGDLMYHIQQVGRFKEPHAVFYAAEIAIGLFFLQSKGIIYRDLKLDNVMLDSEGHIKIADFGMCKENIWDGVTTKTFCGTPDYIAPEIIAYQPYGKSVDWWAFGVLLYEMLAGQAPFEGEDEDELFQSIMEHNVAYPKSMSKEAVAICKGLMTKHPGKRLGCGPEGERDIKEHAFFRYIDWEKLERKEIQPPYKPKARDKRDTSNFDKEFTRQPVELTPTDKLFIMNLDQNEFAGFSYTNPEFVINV
Sequence of Serine/threonine-protein kinase MARK2 (Homo sapiens) (Q7KZI7 whole entry): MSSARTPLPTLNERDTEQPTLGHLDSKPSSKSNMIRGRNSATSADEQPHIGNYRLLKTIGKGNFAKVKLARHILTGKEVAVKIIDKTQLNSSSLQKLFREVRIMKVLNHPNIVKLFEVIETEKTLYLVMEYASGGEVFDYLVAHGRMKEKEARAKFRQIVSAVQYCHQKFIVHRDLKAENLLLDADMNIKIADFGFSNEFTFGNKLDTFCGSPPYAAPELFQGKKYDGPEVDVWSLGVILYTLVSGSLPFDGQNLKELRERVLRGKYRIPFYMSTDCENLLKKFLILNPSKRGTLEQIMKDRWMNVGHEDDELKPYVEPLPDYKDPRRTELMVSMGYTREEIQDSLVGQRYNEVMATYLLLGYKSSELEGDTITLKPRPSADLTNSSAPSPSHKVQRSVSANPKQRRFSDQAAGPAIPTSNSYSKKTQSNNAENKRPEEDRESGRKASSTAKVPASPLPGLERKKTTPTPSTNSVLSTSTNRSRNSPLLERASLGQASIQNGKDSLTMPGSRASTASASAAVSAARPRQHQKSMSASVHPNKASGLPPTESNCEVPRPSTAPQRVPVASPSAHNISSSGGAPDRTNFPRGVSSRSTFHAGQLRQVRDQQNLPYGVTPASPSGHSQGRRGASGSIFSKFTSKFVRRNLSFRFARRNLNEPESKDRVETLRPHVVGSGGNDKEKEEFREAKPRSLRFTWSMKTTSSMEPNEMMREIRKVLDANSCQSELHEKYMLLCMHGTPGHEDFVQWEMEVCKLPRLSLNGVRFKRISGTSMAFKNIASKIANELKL
Sequence of Mitogen-activated protein kinase 3 (Homo sapiens) (P27361 whole entry, the tested form may be a part): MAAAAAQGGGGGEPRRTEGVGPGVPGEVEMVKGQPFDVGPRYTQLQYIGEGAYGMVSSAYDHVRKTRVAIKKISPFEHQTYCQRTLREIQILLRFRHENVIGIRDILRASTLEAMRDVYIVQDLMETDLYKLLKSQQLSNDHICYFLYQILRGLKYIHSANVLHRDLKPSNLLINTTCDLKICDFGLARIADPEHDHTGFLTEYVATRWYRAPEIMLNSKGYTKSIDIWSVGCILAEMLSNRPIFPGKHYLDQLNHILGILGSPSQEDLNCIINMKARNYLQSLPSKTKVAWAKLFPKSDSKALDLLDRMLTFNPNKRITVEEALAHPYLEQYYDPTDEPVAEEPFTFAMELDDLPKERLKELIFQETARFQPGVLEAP
Sequence of Hepatocyte growth factor receptor (Homo sapiens) (P08581 whole entry, the tested form may be a part): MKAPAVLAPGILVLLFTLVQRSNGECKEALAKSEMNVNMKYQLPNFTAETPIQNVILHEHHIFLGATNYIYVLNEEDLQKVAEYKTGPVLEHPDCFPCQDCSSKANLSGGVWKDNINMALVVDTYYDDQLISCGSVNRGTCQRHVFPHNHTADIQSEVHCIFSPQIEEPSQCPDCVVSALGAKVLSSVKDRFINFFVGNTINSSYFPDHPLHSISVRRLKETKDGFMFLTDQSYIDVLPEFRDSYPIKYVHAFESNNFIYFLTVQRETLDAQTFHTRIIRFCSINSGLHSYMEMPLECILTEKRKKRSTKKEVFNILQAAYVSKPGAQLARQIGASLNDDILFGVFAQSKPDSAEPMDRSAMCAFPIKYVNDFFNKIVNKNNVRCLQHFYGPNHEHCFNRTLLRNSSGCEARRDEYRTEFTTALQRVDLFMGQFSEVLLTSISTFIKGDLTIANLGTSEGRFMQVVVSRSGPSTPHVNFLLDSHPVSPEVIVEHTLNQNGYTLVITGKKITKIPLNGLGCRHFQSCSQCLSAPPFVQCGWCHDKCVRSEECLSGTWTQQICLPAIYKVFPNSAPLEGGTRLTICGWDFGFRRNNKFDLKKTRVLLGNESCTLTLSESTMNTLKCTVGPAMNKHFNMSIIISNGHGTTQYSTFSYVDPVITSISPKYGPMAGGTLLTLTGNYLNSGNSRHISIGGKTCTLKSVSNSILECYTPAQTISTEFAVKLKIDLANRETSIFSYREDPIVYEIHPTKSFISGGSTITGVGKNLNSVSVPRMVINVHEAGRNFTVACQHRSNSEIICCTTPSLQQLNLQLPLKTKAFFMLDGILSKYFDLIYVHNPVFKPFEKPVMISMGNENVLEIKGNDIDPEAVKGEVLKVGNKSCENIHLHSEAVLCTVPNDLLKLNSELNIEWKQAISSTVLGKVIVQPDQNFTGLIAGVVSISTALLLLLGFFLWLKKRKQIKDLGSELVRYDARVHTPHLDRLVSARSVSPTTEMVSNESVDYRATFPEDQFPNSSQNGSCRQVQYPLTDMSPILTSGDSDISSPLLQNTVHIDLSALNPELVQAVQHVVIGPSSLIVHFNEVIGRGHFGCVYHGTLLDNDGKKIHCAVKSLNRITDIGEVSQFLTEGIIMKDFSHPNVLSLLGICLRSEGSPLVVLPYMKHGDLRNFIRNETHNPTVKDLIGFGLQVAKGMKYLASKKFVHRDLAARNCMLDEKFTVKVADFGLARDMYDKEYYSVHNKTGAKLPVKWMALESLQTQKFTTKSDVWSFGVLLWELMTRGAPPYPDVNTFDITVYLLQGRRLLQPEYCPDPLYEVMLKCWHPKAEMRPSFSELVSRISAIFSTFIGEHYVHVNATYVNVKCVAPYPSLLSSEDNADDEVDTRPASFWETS

For `CNCc1ccc(-c2ncnc3[nH]cnc23)cc1`, the inhibition [1] was 61%.
In the case of `c1nc(N2CCOCC2)c2nc[nH]c2n1`, the inhibition [2] is reported as 38% and the inhibition [3] is reported as 78.5%.
Work on `NCCc1ccc(-c2ncnc3[nH]cnc23)cc1` yielded an inhibition [4] of 5.5%.
`NCC1CN(c2ncnc3[nH]c4cnccc4c23)CCO1` (centres undefined) showed an inhibition [5] of 54.5%.
`NC1CCN(c2ncnc3[nH]ccc23)CC1` gave an inhibition [6] of 0.5%, an inhibition [7] of 18% and an inhibition [8] of 0%.
`C[C@H](CN(C)C)Oc1nc(Nc2cc3cccc(Cl)c3cn2)cnc1C#N` gave an inhibition [9] of 0%.
